Data: patent US10894786B2, “Substituted pyrazole derivatives as selective CDK12/13 inhibitors” (Aurigene Discovery Technologies Limited, priority 2018, dated 2021)
pIC50, pKd: −log10 of the molar value. Read-outs that look alike come from different tables or passages of the source.

What was measured:
CDK13 = CDK13 (Homo sapiens (Human), UniProt Q14004); test: Biochemical assay for CDK13, LanthaScreen Eu Kinase Binding Assay; conditions: for pIC50: kinase tracer 236 100 nM; for Ratio CDK7/CDK13: ratio of IC50
Source text: Binding of an inhibitor to the kinase competes for binding with the tracer, resulting in a loss of FRET signal.

CDK12 [1] = biological target: T1, CDK12 (Homo sapiens (Human), UniProt Q9NYV4); test: Biochemical assay for CDK12 (Kd determination), kinase-tagged phage/qPCR competition binding
Procedure: Kinase-tagged T7 phage strains were grown in parallel in 24-well blocks in an E. coli host derived from the BL21 strain. E. coli were grown to log-phase and infected with T7 phage from a frozen stock (multiplicity of infection=0.4) and incubated with shaking at 32° C. until lysis (90-150 minutes). The lysates were centrifuged (6,000×g) and filtered (0.2 μm) to remove cell debris. The remaining kinases were produced in HEK-293 cells and subsequently tagged with DNA for qPCR detection. […] The liganded beads were blocked with excess biotin and washed with blocking buffer (SeaBlock (Pierce), 1% BSA, 0.05% Tween 20, 1 mM DTT) to remove unbound ligand and to reduce non-specific phage binding. […] Test compounds were prepared as 40× stocks in 100% DMSO and directly diluted into the assay. All reactions were performed in polypropylene 384-well plates in a final volume of 0.02 ml. […] The kinase concentration in the eluates was measured by qPCR.
Target sequence in this assay (Q9NYV4 whole entry, species assumed): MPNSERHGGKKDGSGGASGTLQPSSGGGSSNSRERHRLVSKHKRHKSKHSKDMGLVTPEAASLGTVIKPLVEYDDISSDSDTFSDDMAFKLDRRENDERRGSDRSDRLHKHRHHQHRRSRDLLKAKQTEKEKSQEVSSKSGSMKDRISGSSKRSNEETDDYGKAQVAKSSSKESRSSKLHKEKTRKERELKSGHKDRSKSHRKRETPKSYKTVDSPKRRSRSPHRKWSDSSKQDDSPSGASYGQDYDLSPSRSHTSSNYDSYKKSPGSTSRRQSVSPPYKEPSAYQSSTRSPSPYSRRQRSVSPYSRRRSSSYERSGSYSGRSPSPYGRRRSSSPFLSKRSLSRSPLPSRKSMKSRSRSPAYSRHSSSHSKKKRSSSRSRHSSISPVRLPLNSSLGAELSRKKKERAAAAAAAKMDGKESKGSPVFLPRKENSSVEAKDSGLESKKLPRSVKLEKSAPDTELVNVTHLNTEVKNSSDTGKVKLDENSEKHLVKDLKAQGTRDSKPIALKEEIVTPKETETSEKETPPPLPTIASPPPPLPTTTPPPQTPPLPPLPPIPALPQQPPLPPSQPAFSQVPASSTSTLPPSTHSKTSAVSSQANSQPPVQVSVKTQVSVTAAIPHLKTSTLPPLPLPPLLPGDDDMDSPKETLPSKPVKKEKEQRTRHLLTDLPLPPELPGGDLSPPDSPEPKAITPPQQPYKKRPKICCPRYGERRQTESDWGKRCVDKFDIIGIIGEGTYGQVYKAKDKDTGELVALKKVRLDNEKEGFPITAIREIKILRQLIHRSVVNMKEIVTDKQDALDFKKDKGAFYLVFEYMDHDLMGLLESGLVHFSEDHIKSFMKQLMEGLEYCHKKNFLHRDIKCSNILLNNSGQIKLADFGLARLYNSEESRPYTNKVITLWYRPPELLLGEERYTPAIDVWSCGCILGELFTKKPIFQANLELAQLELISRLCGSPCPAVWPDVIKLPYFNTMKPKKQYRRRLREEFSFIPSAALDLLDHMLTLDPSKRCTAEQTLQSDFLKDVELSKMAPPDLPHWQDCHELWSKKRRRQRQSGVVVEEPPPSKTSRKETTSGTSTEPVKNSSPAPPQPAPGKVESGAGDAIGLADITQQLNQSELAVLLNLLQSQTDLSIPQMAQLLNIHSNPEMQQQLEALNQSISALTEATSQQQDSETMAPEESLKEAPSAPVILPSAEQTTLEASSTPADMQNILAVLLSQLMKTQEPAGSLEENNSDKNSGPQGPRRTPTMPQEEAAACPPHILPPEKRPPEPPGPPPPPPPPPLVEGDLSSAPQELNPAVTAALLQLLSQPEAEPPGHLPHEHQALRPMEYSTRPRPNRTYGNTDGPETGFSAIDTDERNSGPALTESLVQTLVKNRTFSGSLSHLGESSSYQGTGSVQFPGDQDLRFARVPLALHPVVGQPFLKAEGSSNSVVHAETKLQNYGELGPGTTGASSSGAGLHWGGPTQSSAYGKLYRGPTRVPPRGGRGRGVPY

CDK12 [2] = biological target: T1, CDK12; test: CDK12 plate based target engagement assay in Jurkat cells; format: cell-based; conditions: for CDK12 Target Occupancy (Tocc50) μM in Jurkat cells: 6 hours
Procedure: Jurkat cells were treated with varying concentrations of the compound for 6 hours. The DMSO concentration was maintained at 0.1%. Cells were harvested and lysed. 200 μg of the lysate was incubated with 1 μM Bio-THZ531 in the presence of 1 mM DTT and incubated on a rocker at 4° C. overnight. 100 μL of this sample was added to pre-washed streptavidin coated plates and incubated at room temperature on a rocker for 2 hours. The plates were washed and incubated with CDK12 antibody for overnight at 4° C. Next day the plate was washed and incubated for 2 hours with HRP labelled anti rabbit secondary antibody. Bio-THZ531 bound CDK12 was determined using TMB substrate. […] Percentage CDK12 occupancy with the test compound was calculated over untreated control. Occupancy 50 was calculated by fitting the dose response data to sigmoidal curve fitting equation using GraphPad Prism software V5.

CDK12 [3] = biological target: T1, CDK12; test: Biochemical assay for CDK12 (IC50 determination), LANCE TR-FRET; conditions: for pIC50: ATP 100 μM, 60 min pre-incubation
Procedure: The inhibitory activity of the test compounds was assessed by the LANCE TR-FRET assay, which detects the ATP-dependent phosphorylation of an ULight-4E-BP1 (Thr37/Thr46) substrate peptide (100 nM) by CDK12 (30 nM). Briefly, the enzyme reaction was run in reaction buffer (25 mM HEPES (pH 7.5), 10 mM MgCl2, 0.01% BSA, 0.01% Triton x, 1 mM DTT). The assay was performed in 384-well plate format. The end concentration of the ATP substrate was 100 μM, and that of the ULight-4E-BP1 (Thr37/Thr46) substrate peptide was 100 nM, and of CDK12 was 30 nM. Pre-incubation of the compound and enzyme was performed for 60 min at room temperature. After 60 min incubation at room temperature, the reaction was terminated by the addition of 40 mM EDTA and 0.5 nM Eu-labeled anti-phospho-eIF4E-binding protein (Thr37/46) antibody in LANCE detection buffer. […] The readout was calculated as (acceptor counts/donor counts)×1000. The IC50 values were derived by fitting a sigmoidal dose-response curve to a plot of assay readout over inhibitor concentration.

CDK7 [4] = biological target: T2, CDK7 (Homo sapiens (Human), UniProt P50613); test: Biochemical assay for CDK7, LANCE TR-FRET; conditions: read-out: CDK 7 IC50
Procedure: The inhibitory activity of the test compounds was assessed by the LANCE TR-FRET assay, which detects the ATP-dependent phosphorylation of an ULight-myelin basic protein (MBP) substrate peptide (100 nM) by CDK7 (10 nM). Briefly, the enzyme reaction was run in reaction buffer (20 mM HEPES (pH 7.5), 10 mM MgCl2, 0.01% Triton x, 100 μM Sodium Orthovanadate, 1 mM DTT). The assay was performed in 384-well plate. The end concentration of the ATP substrate was 1 mM/100 μM, and that of the ULight-MBP substrate peptide was 100 nM, and of CDK7 was 10 nM. Pre-incubation of the compound and enzyme was performed for 60 min at room temperature. After 60 min incubation at room temperature, the reaction was terminated by the addition of 40 mM EDTA and 1 nM Eu-labeled anti-phospho-MBP-binding protein antibody in the buffer. […] The readout was calculated as (acceptor counts/donor counts)×1000. The IC50 values were derived by fitting a sigmoidal dose-response curve to a plot of assay readout over inhibitor concentration.
Target sequence in this assay (P50613 whole entry, looked up, species assumed): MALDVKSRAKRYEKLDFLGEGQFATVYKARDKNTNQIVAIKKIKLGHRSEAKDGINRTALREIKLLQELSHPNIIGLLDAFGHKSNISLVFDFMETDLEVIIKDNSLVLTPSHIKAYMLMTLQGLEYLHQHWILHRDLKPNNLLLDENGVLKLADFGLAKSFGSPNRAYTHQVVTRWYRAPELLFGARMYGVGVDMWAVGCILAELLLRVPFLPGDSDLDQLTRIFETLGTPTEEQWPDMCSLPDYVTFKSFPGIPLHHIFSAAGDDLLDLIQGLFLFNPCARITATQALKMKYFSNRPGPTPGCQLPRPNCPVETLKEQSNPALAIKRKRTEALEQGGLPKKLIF
Target sequence in this assay (P51946 whole entry partner, looked up, species assumed): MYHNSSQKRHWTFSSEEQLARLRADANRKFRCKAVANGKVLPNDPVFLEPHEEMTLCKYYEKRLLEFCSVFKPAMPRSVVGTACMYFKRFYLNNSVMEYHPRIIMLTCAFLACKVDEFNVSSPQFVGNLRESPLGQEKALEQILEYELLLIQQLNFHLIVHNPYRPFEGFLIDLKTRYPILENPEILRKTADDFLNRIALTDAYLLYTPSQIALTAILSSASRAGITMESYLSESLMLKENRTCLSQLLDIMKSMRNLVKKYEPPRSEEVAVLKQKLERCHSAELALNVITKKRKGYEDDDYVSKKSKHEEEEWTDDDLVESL
Target sequence in this assay (P51948 whole entry partner, looked up, species assumed): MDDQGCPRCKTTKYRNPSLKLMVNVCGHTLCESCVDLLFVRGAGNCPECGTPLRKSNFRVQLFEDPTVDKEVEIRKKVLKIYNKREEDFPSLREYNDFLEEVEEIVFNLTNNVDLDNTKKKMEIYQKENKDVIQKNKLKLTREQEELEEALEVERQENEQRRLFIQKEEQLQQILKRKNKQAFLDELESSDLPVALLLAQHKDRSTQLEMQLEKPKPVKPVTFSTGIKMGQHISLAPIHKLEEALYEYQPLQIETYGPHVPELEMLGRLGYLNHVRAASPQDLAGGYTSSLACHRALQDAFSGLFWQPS

CDK7 [5] = biological target: T2, CDK7; test: CDK7 target occupancy in Jurkat cells; format: cell-based
[6] = ATP 1 mM/100 μM, 60 min pre-incubation

Sequence of CDK13 (Q14004 whole entry, looked up, species assumed): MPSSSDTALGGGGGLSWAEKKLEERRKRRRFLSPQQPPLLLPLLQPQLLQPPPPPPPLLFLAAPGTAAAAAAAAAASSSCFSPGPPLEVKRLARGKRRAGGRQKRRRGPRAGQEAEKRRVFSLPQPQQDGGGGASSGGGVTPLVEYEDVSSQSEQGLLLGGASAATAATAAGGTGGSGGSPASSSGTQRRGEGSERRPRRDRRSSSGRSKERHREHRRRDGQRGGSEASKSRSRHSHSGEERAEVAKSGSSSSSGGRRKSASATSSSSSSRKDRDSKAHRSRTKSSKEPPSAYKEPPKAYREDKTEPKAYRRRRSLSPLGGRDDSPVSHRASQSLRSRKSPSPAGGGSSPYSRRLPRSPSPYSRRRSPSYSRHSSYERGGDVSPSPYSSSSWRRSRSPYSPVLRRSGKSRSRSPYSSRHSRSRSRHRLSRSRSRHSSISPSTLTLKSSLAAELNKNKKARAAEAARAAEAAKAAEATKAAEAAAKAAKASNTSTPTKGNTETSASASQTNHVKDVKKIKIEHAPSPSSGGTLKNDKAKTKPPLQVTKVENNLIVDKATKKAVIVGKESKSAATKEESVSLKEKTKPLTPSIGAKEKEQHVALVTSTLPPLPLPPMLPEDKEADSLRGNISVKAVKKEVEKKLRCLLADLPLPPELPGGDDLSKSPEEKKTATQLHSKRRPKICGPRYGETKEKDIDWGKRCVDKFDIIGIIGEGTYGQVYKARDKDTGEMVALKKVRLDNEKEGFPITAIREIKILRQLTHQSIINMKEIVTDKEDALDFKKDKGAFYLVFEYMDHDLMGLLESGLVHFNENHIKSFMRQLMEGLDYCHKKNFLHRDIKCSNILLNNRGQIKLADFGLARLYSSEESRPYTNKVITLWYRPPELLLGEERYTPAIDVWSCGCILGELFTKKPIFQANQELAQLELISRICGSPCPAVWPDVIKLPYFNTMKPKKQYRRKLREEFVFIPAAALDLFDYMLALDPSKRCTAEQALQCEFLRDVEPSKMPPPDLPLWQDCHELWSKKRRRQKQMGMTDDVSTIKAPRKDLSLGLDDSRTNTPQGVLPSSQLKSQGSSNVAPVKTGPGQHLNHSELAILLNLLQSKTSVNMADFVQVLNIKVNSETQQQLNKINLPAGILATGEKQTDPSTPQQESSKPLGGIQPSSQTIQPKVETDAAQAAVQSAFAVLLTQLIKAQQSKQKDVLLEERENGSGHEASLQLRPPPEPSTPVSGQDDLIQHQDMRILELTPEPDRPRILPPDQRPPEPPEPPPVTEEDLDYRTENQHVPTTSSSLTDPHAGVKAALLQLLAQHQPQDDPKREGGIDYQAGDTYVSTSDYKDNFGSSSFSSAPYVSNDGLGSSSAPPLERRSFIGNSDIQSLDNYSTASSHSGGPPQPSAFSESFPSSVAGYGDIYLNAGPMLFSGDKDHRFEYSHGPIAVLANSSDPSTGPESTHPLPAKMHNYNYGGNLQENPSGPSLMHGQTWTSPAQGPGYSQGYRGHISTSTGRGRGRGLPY
Sequence of CDK13 (O75909 whole entry partner, looked up, species assumed): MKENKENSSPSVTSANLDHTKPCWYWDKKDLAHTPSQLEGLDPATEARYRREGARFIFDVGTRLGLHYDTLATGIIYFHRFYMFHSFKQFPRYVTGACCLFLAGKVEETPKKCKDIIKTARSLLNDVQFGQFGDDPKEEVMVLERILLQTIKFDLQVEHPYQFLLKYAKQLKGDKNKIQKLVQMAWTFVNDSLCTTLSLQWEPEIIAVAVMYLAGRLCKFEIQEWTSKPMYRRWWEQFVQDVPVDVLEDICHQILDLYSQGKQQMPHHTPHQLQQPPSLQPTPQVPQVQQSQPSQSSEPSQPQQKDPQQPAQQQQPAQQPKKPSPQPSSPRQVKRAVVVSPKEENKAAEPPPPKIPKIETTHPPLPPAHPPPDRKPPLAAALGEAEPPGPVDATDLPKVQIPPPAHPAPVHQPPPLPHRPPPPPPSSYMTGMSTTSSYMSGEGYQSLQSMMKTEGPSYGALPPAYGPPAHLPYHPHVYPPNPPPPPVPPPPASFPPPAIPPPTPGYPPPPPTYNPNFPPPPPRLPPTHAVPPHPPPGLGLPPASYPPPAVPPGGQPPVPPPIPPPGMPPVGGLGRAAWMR

Structure (SMILES) | pIC50 (CDK13) | Ratio CDK7/CDK13 (CDK13) | pKd (CDK12 [1]) | CDK12 Target Occupancy (Tocc50) μM in Jurkat cells (CDK12 [2]; Jurkat cells) [µM] | Ratio CDK7/CDK12 (CDK12 [3]) | pIC50 (CDK12 [3]) | pIC50 (CDK7 [4]) | pIC50 (CDK7 [4]; [6]) | Ratio CDK7/CDK12 (CDK12 [2]) | Jurkat Cells, CDK12 Target Occ50 (CDK12 [2]; Jurkat cells) [nM] | binding affinity towards CDK12 in comparison to CDK7 (CDK12 [2]; Jurkat cells target occupancy) [fold] | Jurkat Cells, CDK7 Target Occ50 (CDK7 [5]) [nM]
C=CC(=O)N1CCN(c2ccc(C(C)C(=O)Nc3cc(C4CC4)[nH]n3)cc2)CC1 (centres unmarked) [Compound 17, 2-(4-(4-acryloylpiperazin-1-yl)phenyl)-N-(5-cyclopropyl-1H-pyrazol-3-yl)propanamide] | 7.09 | 98.27 | < 7.00 | 0.030 | 13.49 | 6.23 | 5.10 | – | – | – | – | –
C=CC(=O)N1CC=C(c2ccc(C(C)C(=O)Nc3cc(C4CC4)[nH]n3)cn2)CC1 (single isomer, unassigned) [Compound 6, 2-(1′-acryloyl-1′,2′,3′,6′-tetrahydro-[2,4′-bipyridin]-5-yl)-N-(5-cyclopropyl-1H-pyrazol-3-yl)propanamide] | 8.22 | 216.66 | > 7.60 | 0.012 | 32.5 | 7.40 | – | 5.89 | – | – | – | –
C=CC(=O)N1CC=C(c2ccc(CC(=O)Nc3cc(C4CC4)[nH]n3)cn2)C1 [Compound 53, 2-(6-(1-acryloyl-2,5-dihydro-1H-pyrrol-3-yl)pyridin-3-yl)-N-(5-cyclopropyl-1H-pyrazol-3-yl)acetamide] | 9.05 | 8655.55 | – | 0.014 | 779 | 8.00 | – | 5.11 | – | – | – | –
C=CC(=O)N1CCC=C(c2ccc(C(C)C(=O)Nc3cc(C4CC4)[nH]n3)cn2)C1 (single isomer, unassigned) [Compound 37, 2-(1′-acryloyl-1′,2′,5′,6′-tetrahydro-[2,3′-bipyridin]-5-yl)-N-(5-cyclopropyl-1H-pyrazol-3-yl)propanamide] | 8.52 | – | > 7.60 | 0.012 | – | 7.54 | – | – | – | – | – | –
C=CC(=O)N1CCC=C(c2ccc([C@H](C)C(=O)Nc3cc(C4CC4)[nH]n3)cc2)C1 [Compound 34, (S)-2-(4-(1-acryloyl-1,2,5,6-tetrahydropyridin-3-yl)phenyl)-N-(5-cyclopropyl-1H-pyrazol-3-yl)propanamide] | 8.37 | – | > 7.60 | 0.050 | – | 6.72 | – | – | – | – | – | –
C[C@H](C(=O)Nc1cc(C2CC2)[nH]n1)c1ccc(C2=CCN(C(=O)/C=C/CN(C)C)CC2)cc1 [Compound 15, (S,E)-N-(5-cyclopropyl-1H-pyrazol-3-yl)-2-(4-(1-(4-(dimethylamino)but-2-enoyl)-1,2,3,6-tetrahydropyridin-4-yl)phenyl)propanamide] | 7.73 | 33.03 | – | 0.204 | 2.64 | 6.63 | – | 6.21 | 8.175 | 204.4 | > 8 | 1671
